Data taken from article PMC2191358 (The Journal of Experimental Medicine, 1994).
Residues, ends and D or L forms follow the SMILES beside them.

Legend:
[1] = molecular target: TAP translocator (H-2d-derived microsomes) (Mus musculus, UniProt P21958+P36371); assay: biochemical
[2] = test system: mouse microsomes; assay: Efflux of labeled peptide from loaded mouse microsomes; format: biochemical; details: mouse liver microsomes in the presence of ATP; HPLC; data not shown
[3] = test system: mouse TAP1/TAP2 translocator; assay: Accumulation of labeled peptide in mouse liver microsomes; details: microsomes from TAP1 mutant (C57Bl/6 x 129/SV) mice; means of duplicates

TAP translocator (H-2d-derived microsomes), sequence (P21958 whole entry): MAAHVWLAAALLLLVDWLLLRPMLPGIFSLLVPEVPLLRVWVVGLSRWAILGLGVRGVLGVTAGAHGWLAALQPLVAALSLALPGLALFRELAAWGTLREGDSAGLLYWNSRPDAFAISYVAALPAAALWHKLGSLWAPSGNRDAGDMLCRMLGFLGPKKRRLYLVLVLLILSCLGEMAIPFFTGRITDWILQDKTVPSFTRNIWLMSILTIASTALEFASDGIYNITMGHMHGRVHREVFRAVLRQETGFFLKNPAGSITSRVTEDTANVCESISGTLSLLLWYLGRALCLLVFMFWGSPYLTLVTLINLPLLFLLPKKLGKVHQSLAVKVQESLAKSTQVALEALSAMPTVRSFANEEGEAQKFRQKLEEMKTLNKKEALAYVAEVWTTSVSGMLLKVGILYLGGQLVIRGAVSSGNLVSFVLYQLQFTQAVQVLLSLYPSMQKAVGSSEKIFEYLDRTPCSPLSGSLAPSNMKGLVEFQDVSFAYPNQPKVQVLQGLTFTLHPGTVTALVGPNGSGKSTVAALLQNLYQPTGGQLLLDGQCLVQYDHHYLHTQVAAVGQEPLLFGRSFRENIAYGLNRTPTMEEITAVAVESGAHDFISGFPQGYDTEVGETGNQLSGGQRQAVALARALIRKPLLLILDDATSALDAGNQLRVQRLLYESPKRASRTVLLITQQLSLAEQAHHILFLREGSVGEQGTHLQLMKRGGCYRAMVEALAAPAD
TAP translocator (H-2d-derived microsomes), sequence (P36371 whole entry): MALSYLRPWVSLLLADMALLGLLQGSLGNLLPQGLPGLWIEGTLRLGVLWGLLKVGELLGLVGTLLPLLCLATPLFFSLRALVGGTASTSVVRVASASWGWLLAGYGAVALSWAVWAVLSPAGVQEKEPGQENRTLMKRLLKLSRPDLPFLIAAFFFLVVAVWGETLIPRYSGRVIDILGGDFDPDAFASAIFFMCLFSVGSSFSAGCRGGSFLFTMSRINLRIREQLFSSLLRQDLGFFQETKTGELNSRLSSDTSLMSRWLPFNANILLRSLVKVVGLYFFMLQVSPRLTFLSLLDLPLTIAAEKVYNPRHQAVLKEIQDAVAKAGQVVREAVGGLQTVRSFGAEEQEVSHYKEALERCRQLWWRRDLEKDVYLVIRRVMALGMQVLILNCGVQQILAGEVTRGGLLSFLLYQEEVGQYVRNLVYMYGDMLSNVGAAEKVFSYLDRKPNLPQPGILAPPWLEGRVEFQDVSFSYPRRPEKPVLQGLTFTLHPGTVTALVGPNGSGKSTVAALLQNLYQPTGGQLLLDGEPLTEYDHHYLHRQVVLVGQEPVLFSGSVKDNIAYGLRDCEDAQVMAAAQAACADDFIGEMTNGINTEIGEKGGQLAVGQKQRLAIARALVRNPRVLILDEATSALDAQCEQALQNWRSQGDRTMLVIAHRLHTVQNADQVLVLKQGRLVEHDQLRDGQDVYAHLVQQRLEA

Row | Molecule | IC50 [1] [µM] | Integrity of material accumulated by and released from microsomes [2] | Accumulation of labeled peptide in TAP- microsomes [3]
1 | CC(C)C[C@H](NC(=O)[C@H](C)NC(=O)[C@H](CCCNC(=N)N)NC(=O)[C@@H](NC(=O)[C@H](CCCNC(=N)N)NC(=O)[C@H](CCC(N)=O)NC(=O)[C@H](Cc1ccc(O)cc1)NC(=O)[C@@H](N)[C@@H](C)O)[C@@H](C)O)C(=O)N[C@H](C(=O)O)C(C)C (H-TYQRTRALV-OH) | 3 |  | 
2 | CC(C)C[C@H](NC(=O)[C@H](C)NC(=O)[C@@H]1CCCN1C(=O)[C@H](Cc1ccc(O)cc1)NC(=O)[C@H](CC(N)=O)NC(=O)CNC(=O)[C@@H]1CCCN1C(=O)[C@H](C)NC(=O)[C@@H](N)Cc1ccccc1)C(N)=O [FAPGNYPAL] | 3 | largely intact | 
3 | TYNRTRALI |  |  | do not accumulate
